This series can be described thus: Safe solvent solubility test of compound. Format: physicochemical. To be noted: amount of dissolution in propylene glycol monomethyl ether acetate at 23° C., ultrasonic 30 minutes, visual.

Experimental: The solubility of the compound in propylene glycol monomethyl ether acetate was measured as the solubility of the compound in a safe solvent. The solubility was evaluated according to the following criteria utilizing the amount of dissolution in propylene glycol monomethyl ether acetate. The amount of dissolution was measured at 23° C. by precisely weighing the compound into a test tube, adding propylene glycol monomethyl ether acetate so as to attain a predetermined concentration, applying ultrasonic waves for 30 minutes in an ultrasonic cleaner, then visually observing the subsequent state of the fluid, and conducting evaluation on the basis of the concentration of the amount of complete dissolution. • A: 5.0% by mass≤Amount of dissolution • B: 3.0% by mass≤Amount of dissolution<5.0% by mass • C: Amount of dissolution<3.0% by mass (2) Storage Stability and Thin Film Formability of Resist Composition

In the case of `CC1(OC(=O)COc2ccc([Te]c3ccc(OCC(=O)OC4(C)C5CC6CC(C5)CC4C6)cc3)cc2)C2CC3CC(C2)CC1C3` (stereo not drawn) [TDP-ADBAC], the “Safe solvent solubility test” value was “A (5.0% by mass≤Amount of dissolution)”.

For `CC1(OC(=O)COc2ccc([Te](Cl)(Cl)c3ccc(OCC(=O)OC4(C)C5CC6CC(C5)CC4C6)c(-c4ccccc4)c3)cc2-c2ccccc2)C2CC3CC(C2)CC1C3` (stereo not drawn) [Ph-BHPT-ADBAC], the “Safe solvent solubility test” value is “A (5.0% by mass≤Amount of dissolution)”.

`CC(C)(C)OC(=O)Oc1ccc([Te](Cl)(Cl)c2ccc(OC(=O)OC(C)(C)C)cc2)cc1` [BHPT-BOC, bis(tert-butoxycarboxyphenyl)tellurium dichloride]: the “Safe solvent solubility test” value is on record as “A (5.0% by mass≤Amount of dissolution)”.

As for `Oc1ccc([Te](Cl)(Cl)c2ccc(O)cc2)cc1` [BHPT, bis(4-hydroxyphenyl)tellurium dichloride], the “Safe solvent solubility test” value is “A (5.0% by mass≤Amount of dissolution)”.

In the case of `CC(C)(C)OC(=O)COc1ccc([Te]c2ccc(OCC(=O)OC(C)(C)C)cc2)cc1` [Ph-TDP-BOC], the “Safe solvent solubility test” value was “A (5.0% by mass≤Amount of dissolution)”.

Consider `Oc1ccc([Te](Cl)(Cl)c2ccc(O)c(-c3ccccc3)c2)cc1-c1ccccc1` [Ph-BHPT, bis(3-phenyl-4-hydroxyphenyl)tellurium dichloride], for which the “Safe solvent solubility test” value was “A (5.0% by mass≤Amount of dissolution)”.

On to `CCOC(C)Oc1ccc([Te](Cl)(Cl)c2ccc(OC(C)OCC)cc2)cc1` (stereo not drawn) [BHPT-EE, bis(ethoxyethylphenyl)tellurium dichloride], for which the “Safe solvent solubility test” value is given as “A (5.0% by mass≤Amount of dissolution)”.

`CC1(OC(=O)COc2ccc([Te]c3ccc(OCC(=O)OC4(C)C5CC6CC(C5)CC4C6)c(-c4ccccc4)c3)cc2-c2ccccc2)C2CC3CC(C2)CC1C3` (stereo not drawn) [Ph-TDP-ADBAC]: the “Safe solvent solubility test” value is given as “A (5.0% by mass≤Amount of dissolution)”.

On to `Oc1ccc([Te]c2ccc(O)c(-c3ccccc3)c2)cc1-c1ccccc1` [Ph-TDP, bis(3-phenyl-4-hydroxyphenyl)tellurium], for which the “Safe solvent solubility test” value is reported as “A (5.0% by mass≤Amount of dissolution)”.

On to `Oc1ccc([Te]c2ccc(O)cc2)cc1` [TDP, 4,4′-telluriumdiphenol], for which the “Safe solvent solubility test” value is given as “A (5.0% by mass≤Amount of dissolution)”.

Take `CCOC(C)Oc1ccc([Te](Cl)(Cl)c2ccc(OC(C)OCC)c(-c3ccccc3)c2)cc1-c1ccccc1` (stereo not drawn) [Ph-TDP-EE]: the “Safe solvent solubility test” value is “A (5.0% by mass≤Amount of dissolution)”.

Consider `CC1(OC(=O)COc2ccc([Te](Cl)(Cl)c3ccc(OCC(=O)OC4(C)C5CC6CC(C5)CC4C6)cc3)cc2)C2CC3CC(C2)CC1C3` (stereo not drawn) [BHPT-ADBAC, bis(4-(2-methyl-2-adamantyloxycarbonylmethoxy)phenyl)tellurium dichloride], for which the “Safe solvent solubility test” value is “A (5.0% by mass≤Amount of dissolution)”.

For the origin of these results see US11852970B2, “Material for lithography, production method therefor, composition for lithography, pattern formation method, compound, resin, and method for purifying the compound or the resin” (Mitsubishi Gas Chemical Company, Inc., priority 2015, dated 2023).
